According to patent publication US10975068B2, “6-aminopyridin-3-yl thiazoles as modulators of RORγT” (Janssen Pharmaceutica NV, priority 2016, dated 2021):
Where two headings read alike, the source gives them in different places.

Assays:
full-length human RORγt = full-length human RORγt (Homo sapiens (Human), UniProt P51449); assay: RORγt (full-length human) reporter assay, Conditions B or C; type: cell-based; conditions: for RORγt (FL) Reporter Assay B or C, % inhibition (value marked *): marked *: footnote not given; for IC50: read-out: RORγt (FL) Reporter Assay B or C, IC50
How it was run: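 Readout is dual luciferase: firefly (GAL4-driven) normalized to DMSO-only and saturating-reference controls, then to CMV-Renilla. Full-length human RORγt fused to GAL4-DBD was transiently expressed in HEK293T; compound exposure ran overnight (16-20 h) starting 4-6 h after transfection, final FBS 1.3%, DMSO 0.1%.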

[1] = target: human RORγt ligand binding domain (RORγt LBD) (Homo sapiens (Human), UniProt P51449); assay: RORγt ThermoFluor® assay (thermal shift binding); conditions: for Kd: read-out: ThermoFluor® Assay, Kd
How it was run: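 Binding was inferred from thermal stabilisation (ΔTm) of the E. coli-expressed RORγt LBD (0.065 mg/mL), monitored by 1,8-ANS (60 μM) emission at 500 nm during a 1 °C/min ramp. Buffer was Hepes 100 mM pH 7.0 with NaCl, GSH and Tween-20.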

[2] = compared to Comparator Example 1
[3] = compared to Comparator Example 2

Chain of full-length human RORγt (P51449 other isoform, or with tags, fused parts or gaps): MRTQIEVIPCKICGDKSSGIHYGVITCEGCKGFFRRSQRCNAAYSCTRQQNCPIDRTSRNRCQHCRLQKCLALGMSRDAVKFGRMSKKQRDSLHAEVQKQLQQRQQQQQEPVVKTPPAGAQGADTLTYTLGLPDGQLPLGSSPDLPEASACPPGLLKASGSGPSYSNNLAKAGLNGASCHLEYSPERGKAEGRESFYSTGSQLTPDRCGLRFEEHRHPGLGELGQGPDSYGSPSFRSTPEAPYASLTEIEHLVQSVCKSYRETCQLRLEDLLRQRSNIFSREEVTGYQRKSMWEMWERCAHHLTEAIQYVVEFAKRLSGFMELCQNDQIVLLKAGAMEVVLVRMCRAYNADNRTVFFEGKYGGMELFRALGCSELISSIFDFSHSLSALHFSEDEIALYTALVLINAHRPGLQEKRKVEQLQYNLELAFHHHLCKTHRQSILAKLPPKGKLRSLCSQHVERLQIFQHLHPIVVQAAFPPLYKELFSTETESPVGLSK
Chain of human RORγt ligand binding domain (RORγt LBD) (P51449 other isoform, or with tags, fused parts or gaps): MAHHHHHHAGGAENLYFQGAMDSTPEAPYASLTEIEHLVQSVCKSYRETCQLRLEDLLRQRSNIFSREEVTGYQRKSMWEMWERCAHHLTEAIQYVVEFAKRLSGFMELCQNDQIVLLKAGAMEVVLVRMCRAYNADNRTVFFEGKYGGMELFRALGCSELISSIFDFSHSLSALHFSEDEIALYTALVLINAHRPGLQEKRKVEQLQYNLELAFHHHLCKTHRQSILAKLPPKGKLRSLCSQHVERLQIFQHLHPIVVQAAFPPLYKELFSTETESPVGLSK

Row | SMILES | RORγt (FL) Reporter Assay B or C, % inhibition (value marked *) (full-length human RORγt; Conditions B or C) | IC50 (full-length human RORγt; Conditions B or C) [nM] | Kd [1] [nM] | also measured
1 | C[C@H]1CCCN1C(=O)c1nc(C(=O)NCC(C)(C)O)sc1-c1cnc(NCC(C)(C)C)cc1C(F)F [Example 113, (S)-5-(4-(Difluoromethyl)-6-(neopentylamino)pyridin-3-yl)-N-(2-hydroxy-2-methylpropyl)-4-(2-methylpyrrolidine-1-carbonyl)thiazole-2-carboxamide] | 110* % | 63 | 6 | –
2 | C[C@H]1CCCCN1C(=O)c1nc(C(=O)NCC(C)(C)O)sc1-c1cnc(NCC(C)(C)C)cc1C(F)F [Example 114, (S)-5-(4-(Difluoromethyl)-6-(neopentylamino)pyridin-3-yl)-N-(2-hydroxy-2-methylpropyl)-4-(2-methylpiperidine-1-carbonyl)thiazole-2-carboxamide] | 117* % | 9.7 | 0.49 | –
3 | CC(C)(O)CNC(=O)c1nc(C(=O)N2C3CCC2CC3)c(-c2cnc(NCC3(C(F)(F)F)CCC3)cc2C(F)(F)F)s1 [Example 119, 4-((1s,4s)-7-Azabicyclo[2.2.1]heptane-7-carbonyl)-N-(2-hydroxy-2-methylpropyl)-5-(4-(trifluoromethyl)-6-(((1-(trifluoromethyl)cyclobutyl)methyl)amino)pyridin-3-yl)thiazole-2-carboxamide] | 108* % | 17 | 1.5 | –
4 | C[C@H]1CCCN1C(=O)c1nc(C(=O)NCC(C)(C)O)sc1-c1cnc(NC2(C(F)(F)F)CCC2)cc1C(F)F [Example 123, (S)-5-(4-(Difluoromethyl)-6-((1-(trifluoromethyl)cyclobutyl)amino)pyridin-3-yl)-N-(2-hydroxy-2-methylpropyl)-4-(2-methylpyrrolidine-1-carbonyl)thiazole-2-carboxamide] | 105* % | 13 | 1.9 | –
5 | C[C@H]1CCCN1C(=O)c1nc(C(=O)NCC2(O)CCC2)sc1-c1cnc(NC(C)(C)C)cc1C(F)F [Example 133, (S)-5-(6-(tert-Butylamino)-4-(difluoromethyl)pyridin-3-yl)-N-((1-hydroxycyclobutyl)methyl)-4-(2-methylpyrrolidine-1-carbonyl)thiazole-2-carboxamide] | 105* % | 28 | 4.5 | –
6 | C[C@H](Nc1cc(C(F)F)c(-c2sc(C(=O)NCC(C)(C)O)nc2C(=O)N2C3CCC2CC3)cn1)C(F)(F)F [Example 136] | 109* % | 790 | 16 | –
7 | CC(C)(O)CNC(=O)c1nc(C(=O)N2C3CCC2CC3)c(-c2cnc(NC(C3CC3)C3CC3)cc2C(F)(F)F)s1 [Example 137, 4-((1s,4s)-7-Azabicyclo[2.2.1]heptane-7-carbonyl)-5-(6-((dicyclopropylmethyl)amino)-4-(trifluoromethyl)pyridin-3-yl)-N-(2-hydroxy-2-methypropyl)thiazole-2-carboxamide] | 97* % | 12 | 1.1 | –
8 | C[C@H]1CC(F)(F)CN1C(=O)c1nc(C(=O)NCC(C)(C)O)sc1-c1cnc(NC(C2CC2)C2CC2)cc1C(F)(F)F [Example 138, (S)-5-(6-((Dicyclopropylmethyl)amino)-4-(trifluoromethyl)pyridin-3-yl)-4-(4,4-difluoro-2-methylpyrrolidine-1-carbonyl)-N-(2-hydroxy-2-methylpropyl)thiazole-2-carboxamide] | – | 12 | 0.62 | RORγt (FL) Reporter Assay B or C, % inhibition (value marked ***) (full-length human RORγt; Conditions B or C, marked ***: footnote not given): 100*** %
9 | C[C@H]1CC(F)(F)CN1C(=O)c1nc(C(=O)NCC(C)(C)O)sc1-c1cnc(NC(C)(C)C)cc1C(F)F [Example 143, (S)-5-(6-(tert-Butylamino)-4-(difluoromethyl)pyridin-3-yl)-4-(4,4-difluoro-2-methylpyrrolidine-1-carbonyl)-N-(2-hydroxy-2-methylpropyl)thiazole-2-carboxamide] | 114* % | 39 | 2.3 | –
10 | C[C@H]1CCCN1C(=O)c1nc(C(=O)NCC(C)(C)O)sc1-c1cnc(NC2CCCCC2)c(C#N)c1 [Example 146, (S)-5-(5-Cyano-6-(cyclohexylamino)pyridin-3-yl)-N-(2-hydroxy-2-methylpropyl)-4-(2-methylpyrrolidine-1-carbonyl)thiazole-2-carboxamide] | 98* % | 830 | 210 | IC50 (full-length human RORγt; HEK293T cells): 830 nM; fold improvement in RORγt reporter assay activity (full-length human RORγt; [2]): 7.2 fold; fold improvement in RORγt reporter assay activity (full-length human RORγt; [3]): 3.6 fold; fold improvement in RORγt Thermofluor® binding assay activity [1, 2]: 14 fold; fold improvement in RORγt Thermofluor® binding assay activity [1, 3]: 27 fold

The next lines start with results.

Row | RORγt (FL) Reporter Assay B or C, % inhibition (value marked *) (full-length human RORγt; Conditions B or C) | IC50 (full-length human RORγt; Conditions B or C) [nM] | Kd [1] [nM] | SMILES | also measured
11 | 107* % | 3.3 | 0.78 | C[C@H]1CCCN1C(=O)c1nc(C(=O)NCC(C)(C)O)sc1-c1cnc(NCC2(C(F)(F)F)CCC2)cc1C(F)(F)F [Example 117, (S)—N-(2-Hydroxy-2-methylpropyl)-4-(2-methylpyrrolidine-1-carbonyl)-5-(4-(trifluoromethyl)-6-(((1-(trifluoromethyl)cyclobutyl)methyl)amino)pyridin-3-yl)thiazole-2-carboxamide] | –
12 | – | 7.1 | 0.43 | C[C@H]1CC(F)(F)CN1C(=O)c1nc(C(=O)NCC(C)(C)O)sc1-c1cnc(NCC2(C(F)(F)F)CCC2)cc1C(F)(F)F [Example 118, (S)-4-(4,4-Difluoro-2-methylpyrrolidine-1-carbonyl)-N-(2-hydroxy-2-methylpropyl)-5-(4-(trifluoromethyl)-6-(((1-(trifluoromethyl)cyclobutyl)methyl)amino)pyridin-3-yl)thiazole-2-carboxamide] | RORγt (FL) Reporter Assay B or C, % inhibition (value marked ****) (full-length human RORγt; Conditions B or C, marked ****: footnote not shown): 109**** %
13 | 103* % | 26 | 1.7 | C[C@H]1CCCN1C(=O)c1nc(C(=O)NCC(C)(C)O)sc1-c1cnc(NCC(C)(C)C(F)(F)F)cc1C(F)(F)F [Example 120, (S)—N-(2-Hydroxy-2-methylpropyl)-4-(2-methylpyrrolidine-1-carbonyl)-5-(6-((3,3,3-trifluoro-2,2-dimethylpropyl)amino)-4-(trifluoromethyl)pyridin-3-yl)thiazole-2-carboxamide] | –
14 | 104* % | 25 | 0.65 | C[C@H]1CC(F)(F)CN1C(=O)c1nc(C(=O)NCC(C)(C)O)sc1-c1cnc(NCC(C)(C)C(F)(F)F)cc1C(F)(F)F [Example 121, (S)-4-(4,4-Difluoro-2-methylpyrrolidine-1-carbonyl)-N-(2-hydroxy-2-methylpropyl)-5-(6-((3,3,3-trifluoro-2,2-dimethylpropyl)amino)-4-(trifluoromethyl)pyridin-3-yl)thiazole-2-carboxamide] | –
15 | 100* % | 59 | 2.4 | C[C@H]1CCCN1C(=O)c1nc(C(=O)NCC(C)(C)O)sc1-c1cnc(NCC2(C(F)(F)F)CC2)cc1C(F)(F)F [Example 125] | –
16 | 98* % | 69 | 0.85 | C[C@H]1CC(F)(F)CN1C(=O)c1nc(C(=O)NCC(C)(C)O)sc1-c1cnc(NCC2(C(F)(F)F)CC2)cc1C(F)(F)F [Example 126, (S)-4-(4,4-Difluoro-2-methylpyrrolidine-1-carbonyl)-N-(2-hydroxy-2-methylpropyl)-5-(4-(trifluoromethyl)-6-(((1-(trifluoromethyl)cyclopropyl)methyl)amino)pyridin-3-yl)thiazole-2-carboxamide] | –
17 | 114* % | 110 | 6.2 | C[C@H]1CCCN1C(=O)c1nc(C(=O)NCC(C)(C)O)sc1-c1cnc(NC2CCCC2(F)F)cc1C(F)(F)F (stereo partly drawn) [Example 127, 5-(6-((2,2-Difluorocyclopentyl)amino)-4-(trifluoromethyl)pyridin-3-yl)-N-(2-hydroxy-2-methylpropyl)-4-((S)-2-methylpyrrolidine-1-carbonyl)thiazole-2-carboxamide] | –
18 | 112* % | 14 | 0.41 | C[C@H]1CCCN1C(=O)c1nc(C(=O)NCC(C)(C)O)sc1-c1cnc(NC(C)(C)C(F)(F)F)cc1C(F)(F)F [Example 132, (S)—N-(2-Hydroxy-2-methylpropyl)-4-(2-methylpyrrolidine-1-carbonyl)-5-(6-((1,1,1-trifluoro-2-methylpropan-2-yl)amino)-4-(trifluoromethyl)pyridin-3-yl)thiazole-2-carboxamide] | –
19 | 108* % | 14 | 1.2 | C[C@H]1CCCN1C(=O)c1nc(C(=O)NCC2(O)CCC2)sc1-c1cnc(NC(C)(C)C)cc1C(F)(F)F [Example 134, (S)-5-(6-(tert-Butylamino)-4-(trifluoromethyl)pyridin-3-yl)-N-((1-hydroxycyclobutyl)methyl)-4-(2-methylpyrrolidine-1-carbonyl)thiazole-2-carboxamide] | –
20 | 107* % | 12 | 1.1 | C[C@H]1CCCN1C(=O)c1nc(C(=O)NCC(C)(C)O)sc1-c1cnc(NC(C2CC2)C2CC2)cc1C(F)(F)F [Example 139, (S)-5-(6-((Dicyclopropylmethyl)amino)-4-(trifluoromethyl)pyridin-3-yl)-N-(2-hydroxy-2-methylpropyl)-4-(2-methylpyrrolidine-1-carbonyl)thiazole-2-carboxamide] | –
